Experimental data: patent publication US12509460B2 (Skyhawk Therapeutics, Inc., priority 2019, dated 2025)

Experiments:
[1] = tested on: MDR1-MDCK cell monolayers; conditions: dog, MDCK-MDR1, 120 min, 5 μM, pH 7.4
MDR1 (P-gp) = test: in vitro; conditions: dog, MDCK-MDR1, pH 7.4
MDR1 = test: in vitro; conditions: dog, MDCK-MDR1, pH 7.4
[2] = tested on: SMN protein in spinal muscular atrophy (SMA) patient fibroblasts (GM03813, Coriell); test: SMN protein assay, Mesoscale Discovery (MSD); format: cell-based, human; conditions: for EC50: read-out: SMN2 protein EC50
How it was run: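 SMA patient fibroblasts (GM03813) seeded at 7000 cells/well and exposed to compound at 2.5 μM to 0.6 nM for 48 hours. Lysates assayed for SMN by MSD immunoassay, with absolute SMN amount calculated from a per-plate SMN standard curve (1 μg/ml to 19.5 pg/ml).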

[3] = tested on: mHTT protein in GM04724 (CAG 70/20) Huntington's disease patient lymphoblast cells; test: mHTT protein assay, 2B7-MW1 assay via Mesoscale Discovery (MSD); format: cell-based, human
How it was run: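 Patient lymphoblasts treated 48 h with compound from 10 μM to 0.6 nM. mHTT quantified by MSD 2B7-MW1 immunoassay, whose signal depends on polyQ expansion and HTT size. Viability measured on a replicate plate by CellTiter Glo.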

[4] = SMA patient fibroblasts GM03813, 48 hours, MSD
[5] = GM04724 Huntington's disease patient lymphoblasts
[6] = SMA patient fibroblasts (GM03813), 48 hours

Compound | MDCK-MDR1: % Recov A-B [1] [%] | MDCK-MDR1: % Recov B-A [1] [%] | Papp A→B at 120 min, 5 μM (MDR1 (P-gp)) [×10⁻⁶ cm/s] | Papp B→A at 120 min, 5 μM (MDR1 (P-gp)) [×10⁻⁶ cm/s] | efflux ratio at 120 min, 5 μM (MDR1) | EC50 [2, 4] [nM] | EC50 [3, 5] [nM] | SMN2 protein EC50 [2, 4] | mHTT protein EC50 [3, 5] | SMN2 protein EC50 [2, 6] | mHTT protein EC50 ([3]; GM04724 (CAG 70/20) Huntington's disease patient lymphoblasts)
O=c1c2cc(O)c(-c3ccc(N(C4CC4)[C@H]4C[C@@H]5CC[C@@H](N5)[C@H]4F)nn3)cc2ncn1CC(F)(F)F (single isomer, unassigned) [Compound 60B] | 88 | 92 | 0.68 | 53 | 77 | 101 to 500 | 101 to 500 |  |  |  | 
CN(c1ccc(-c2cnc(C#N)cc2O)nn1)[C@@H]1C[C@H]2CC[C@H](N2)[C@@H]1F (single isomer, unassigned) [Compound 71A] | 88 | 92 | 3.87 | 26.2 | 7 |  |  | E (501 ≤ E ≤ 10.000) | E (501 ≤ E ≤ 10.000) |  | 
CN(c1ccc(-c2ccc(C3CC3)cc2O)nn1)[C@@H]1C[C@H]2CC[C@H](N2)[C@@H]1F (single isomer, unassigned) [Compound 31A] | 45 | 66 | 8.77 | 31.3 | 4 |  |  | E (501 ≤ E ≤ 10.000) | E (501 ≤ E ≤ 10.000) |  | 
CN(c1ccc(-c2cc3cc[nH]c(=O)c3s2)nn1)[C@@H]1C[C@H]2CC[C@H](N2)[C@@H]1F (single isomer, unassigned) [Compound 66A] | 93 | 100 | 0.09 | 4.4 | 51 |  |  | E (501 ≤ E ≤ 10.000) | E (501 ≤ E ≤ 10.000) |  | 
CN(c1ccc(-c2cc3ncn(CC(F)(F)F)c(=O)c3cc2O)nn1)[C@@H]1C[C@H]2CC(F)(F)[C@@H](C1)N2C (single isomer, unassigned) [Compound 110A] | 80 | 92 | 11 | 44.4 | 4 |  |  |  |  | E (501 ≤ E ≤ 10.000) | E (501 ≤ E ≤ 10.000)
CN(c1ccc(-c2cc3occc(=O)c3cc2O)nn1)[C@@H]1C[C@H]2CC[C@@H]([C@@H]1F)N2C (single isomer, unassigned) [Compound 94A] | 68 | 71 | 4.99 | 33.9 | 7 | 101 to 500 |  |  | E (501 ≤ E ≤ 10.000) |  | 
CN(c1ccc(-c2cn3c(=O)ccnc3cc2O)nn1)[C@@H]1C[C@H]2CC[C@@H]([C@@H]1F)N2C (single isomer, unassigned) [Compound 95A] | 85 | 115 | 0.15 | 8.79 | 59 |  |  | E (501 ≤ E ≤ 10.000) | E (501 ≤ E ≤ 10.000) |  | 
Cc1nc2cc(O)c(-c3ccc(N(C)[C@@H]4C[C@H]5CC[C@H](N5)C4F)nn3)cc2o1 (stereo in doubt) [Compound 40A, 6-(6-(((1S,2R,3R,5R)-2-fluoro-8-azabicyclo[3.2.1]octan-3-yl)(methyl)amino)pyridazin-3-yl)-2-methylbenzo[d]oxazol-5-ol] | 62 | 92 | 3.68 | 57.9 | 16 |  | 101 to 500 | E (501 ≤ E ≤ 10.000) |  |  | 
CN(c1ccc(-c2cnc(-c3cnn(C)c3)nc2O)nn1)[C@H]1C[C@@H]2CC[C@@H](N2)[C@H]1F (racemic) [Compound 122, rac-5-(6-(((1R,2R,3S,5S)-2-fluoro-8-azabicyclo[3.2.1]octan-3-yl)(methyl)amino)pyridazin-3-yl)-2-(1-methyl-1H-pyrazol-4-yl)pyrimidin-4-ol] | 86 | 98 | < 0.2 | 0.6 | > 3 |  |  |  |  | E (501 ≤ E ≤ 10.000) | 
